Data as given in publication PMC12406204 (Journal of Medicinal Chemistry, 2025).
In brackets after ≈: the same amount, converted by molar mass.

How the values were obtained:
[1] = molecular target: CB1R (Homo sapiens, UniProt P21554); assay: CB1R Gi protein-mediated cAMP inhibition assay; type: cell-based; conditions: for functional selectivity ratio: CB1R vs CB2R cAMP EC50
Excerpt: Given their excellent CB2R functional activity and ability to cross the blood–brain barrier, compounds 18p and 18o were selected for CB1R functional evaluation to assess potential risks of CB1R-mediated central effects. […] Full CB1R dose–response curves are provided in the Supporting Information (Figure S6).

[2] = Mouse microsomal stability; type: in vitro ADME; conditions: for microsomal stability % remanent: Mouse, sampling time 60 min; for microsomal CLint / half-life: mouse, microsomes, pH 7.4; for half-life: read-out: microsomal stability t1/2
[3] = Human microsomal stability; type: in vitro ADME; conditions: for microsomal stability % remanent: Human, sampling time 60 min; for microsomal CLint / half-life: human, liver microsomes, pH 7.4; for half-life: read-out: microsomal stability t1/2
Protocol: The human microsomal stability of selected compounds was evaluated by following a previously described method. The human microsomes employed were purchased from Tebu-Xenotech. The compound was incubated with the microsomes at 37 °C in a 50 mM phosphate buffer (pH = 7.4) containing 3 mM MgCl2, 1 mM NADP, 10 mM glucose-6-phosphate and 1 U/mL glucose-6-phosphate-dehydrogenase. Samples (75 μL) were taken from each well at 0, 10, 20, 40, and 60 min and transferred to a plate containing 4 °C 75 μL acetonitrile and 30 μL of 0.5% formic acid in water were added for improving the chromatographic conditions. The plate was centrifuged ([…], 30 min) and supernatants were taken and analyzed in an UPLC-MS/MS (Xevo-TQD, Waters) by employing a BEH C18 column and an isocratic gradient of 0.1% formic acid in water: 0.1% formic acid acetonitrile (60:40). The metabolic stability of the compounds was calculated from the logarithm of the remaining compounds at each of the time point studied.

[4] = test system: SH-SY5Y cells; assay: Neurite length in differentiated SH-SY5Y cells transfected with MAPT P301L + APP V717I; type: cell-based, human; conditions: for neuroprotective effect in presence of CB2R antagonist SR144528: 100 and 10 nM, SR144528 1 μM
Excerpt: Finally, to further validate these effects, a neuron-like in vitro model using differentiated SH-SY5Y cells was employed (Figure ). […] To simulate neurodegenerative conditions, cells were transiently transfected with expression plasmids encoding the MAPT P301L and APP V717I mutations. The MAPT P301L mutation promotes pathological tau hyperphosphorylation and aggregation, leading to microtubule destabilization, impaired axonal transport, and neurite retraction. , Meanwhile, the APP V717I mutation increases the production of long, aggregation-prone amyloidogenic peptides, disrupting cellular homeostasis through oxidative stress and cytoskeletal disorganization. ,
SH-SY5Y human neuroblastoma-derived cells (ECACC, 94030304) were cultured and differentiated in black 384-well plates (Revvity, 6057300). Plates were treated with laminin (1:500 dilution in PBS; Merck, L2020) by adding 25 μL per well and incubated for 2 h at room temperature. Subsequently, plates were washed three times with PBS. Cells were seeded at a density of 6.6 × 10^3 cells per well (in 50 μL) in culture medium. The base culture medium consisted of RPMI-1640 (Gibco, 61870) supplemented with 2% (v/v) fetal bovine serum (FBS; Merck, F7524), 1% (v/v) penicillin-streptomycin (P/S; Merck, P0781), and 0.1% (v/v) gentamicin (Merck, G1397).
Differentiation was initiated 24 h after plating. The culture medium was replaced with a differentiation medium composed of RPMI-1640 supplemented with 2% (v/v) FBS, 1% (v/v) P/S, 0.1% (v/v) gentamicin, and 10 μM all-trans retinoic acid (RA; Merck, R2625). Medium changes were performed every 3 days, and the plates were kept covered with aluminum foil to protect retinoic acid from light exposure. Six days later, cells were transfected with expression plasmids encoding MAPT P301L and APP V717I mutations employing Lipofectamine LTX (Thermo Fisher, 15338100) at a 1:2 proportion in Opti-MEM (Gibco, 11058-021) following the instructions of the manufacturer. After 6 h, the transfection medium was replaced with a differentiation medium composed of RPMI-1640, B27 supplement (1:50; Gibco, 17504), 1% (v/v) P/S, 0.1% (v/v) gentamicin, and 100 nM GLP-1 (Merck, G9416). 24 h later, test compounds were added using an Echo 650T acoustic dispenser (Labcyte) from a 10 mM stock solution in DMSO (Merck, D8418).
48 h after compound dispensation, cells were fixed with 4% paraformaldehyde (50 μL per well, Santa Cruz BT, sc-281692) for 20 min at 4 °C. Wells were then washed twice with HBSS (50 μL per wash, Merck, H8264) and incubated with 50 μL of blocking buffer for 30 min at room temperature. The blocking buffer consisted of HBSS supplemented with 5% BSA (w/v) (Merck, 10775835001) and 0.1% (v/v) Triton X-100 (Merck, T8787). After blocking, cells were incubated with an antibeta-tubulin antibody conjugated to Alexa Fluor 488 (1:500; BD Biosciences, 558605) and Draq5 nuclear stain (2.5 μM; Abcam, ab108410) diluted in blocking buffer. After incubation in the dark at room temperature, wells were washed once with 50 μL of HBSS and subsequently filled with 50 μL of blocking buffer prior to imaging.Images were acquired using an Operetta CLS High Content Screening System (Revvity) equipped with a 20× water-immersion objective. Fluorescent signals were detected using specific excitation/emission filter settings for each fluorophore: Alexa Fluor 488 (λex = 460–490 nm; λem = 500–550 nm) and Draq5 (λex = 615–645 nm; λem = 655–760 nm). For each well, nine nonoverlapping fields were captured under identical acquisition settings. Neurite length and complexity were quantified using Harmony software (version 4.9.2137.273; Revvity), applying a predefined analysis algorithm optimized for β-tubulin immunostaining. For each experiment, data were normalized to the average neurite length measured in the double-transfected condition (MAPT P301L + APP V717I) treated with vehicle, which was assigned a reference value of 100%. […]

[5] = Kinetic solubility (nephelometry); type: physicochemical; conditions: 37 °C, aqueous buffer, kinetic from dmso stock; 1:99 DMSO/PSB buffer; PBS pH 7
Protocol: The solubility of selected compounds was evaluated by following a previously described method. A 10 mM stock solution of the compound was serially diluted in 100% DMSO and 2.5 μL of this solution was added to a 384-well UV-transparent plate (Greiner) containing 47.5 μL of PBS (pH = 7). The plate was incubated at 37 °C for 4 h and the light scattering was measured in a Nephelostar plus reader (BMG LABTECH). The data was fitted to a segmented linear regression for measuring the compound solubility.

Sequence of CB1R (P21554 whole entry): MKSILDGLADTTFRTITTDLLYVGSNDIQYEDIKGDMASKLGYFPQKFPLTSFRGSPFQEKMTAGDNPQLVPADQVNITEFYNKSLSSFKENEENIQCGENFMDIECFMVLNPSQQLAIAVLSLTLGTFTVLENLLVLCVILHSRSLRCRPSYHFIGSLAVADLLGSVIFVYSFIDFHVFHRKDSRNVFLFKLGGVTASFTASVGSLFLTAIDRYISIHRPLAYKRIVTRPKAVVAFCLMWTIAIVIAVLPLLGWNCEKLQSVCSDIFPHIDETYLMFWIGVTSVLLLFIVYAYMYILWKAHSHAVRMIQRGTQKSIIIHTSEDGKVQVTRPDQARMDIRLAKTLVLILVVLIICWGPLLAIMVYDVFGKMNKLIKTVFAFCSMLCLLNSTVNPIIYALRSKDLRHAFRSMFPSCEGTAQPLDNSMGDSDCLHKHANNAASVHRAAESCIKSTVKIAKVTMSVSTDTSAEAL

| SMILES | EC50 [1] [nM] | Emax [1] [%] | functional selectivity ratio [1] | microsomal stability % remanent [2] [%] | microsomal CLint [2] [µL/min/mg] | half-life [2] [min] | microsomal stability % remanent [3] [%] | microsomal CLint [3] [µL/min/mg] | half-life [3] [min] | protective effect against neurite shortening ([4]; 1 nM) | protective effect against neurite shortening ([4]; 10 nM to 1 μM) | neuroprotective effect in presence of CB2R antagonist SR144528 [4] | solubility at 4 h [5] [µM] |
| --- | --- | --- | --- | --- | --- | --- | --- | --- | --- | --- | --- | --- | --- |
| NC(=O)[C@H]1CCCCN1C(=O)c1nn(Cc2ccc(F)cc2)c2ccccc12 [18p] | 755 ± 31 | 45 | 111 | – | – | – | – | – | – | – | – | – | – |
| NC(=O)[C@@H]1CCCCN1C(=O)c1cn(CC2CCCCC2)c2ccccc12 [18e] | – | – | – | 22.3 | 54.3 | 21.8 | 15.9 | 67.3 | 19.4 | neither compound produced a statistically significant effect | significant concentration-dependent protective effect | reversed | 40.1 (≈ 14.7 µg/mL) |
| NC(=O)[C@@H]1CCCCN1C(=O)c1nn(Cc2ccc(F)cc2)c2ccccc12 [18o] | 1070 ± 57 | 36 | > 1780 | 28.4 | 26.1 | 28 | 59.6 | 11.8 | 50.9 | neither compound produced a statistically significant effect | significant concentration-dependent protective effect | reversed | 43.7 (≈ 16.6 µg/mL) |
